In patent US10004809B2, “Precise delivery of therapeutic agents to cell mitochondria for anti-cancer therapy” (UNIVERSITY OF GEORGIA RESEARCH FOUNDATION, INC., priority 2013, dated 2018):

Assays:
Assay type in all cases: cell-based, Human
[1] = test system: LNCaP cells; assay: MTT cytotoxicity assay; details: LNCaP cells, MTT
Experimental: (§1) The cytotoxic behaviors of MITO-DCA, TPP-DCA, Na-DCA, and TPP-Tris-(OH)3 were evaluated using the MTT assay against PC3, DU145, LNCaP, and MSC cells. Cells (2000 cells/well for PC3, DU145, and MSC cells; 5000 cells/well for LNCaP) were seeded on a 96-well plate in 100 μL of desired medium and incubated for 24 h. The cells were treated with different DCA compounds and TPP-Tris-(OH)3 at varying concentrations and incubated for 72 h at 37° C. The cells were then treated with 20 μL of MTT (5 mg/mL in PBS) for 5 h. The medium was removed, the cells were lysed with 100 μL of DMSO, and the absorbance of the purple tormazan was recorded at 550 nm using a Bio-Tek Synergy HT microplate reader. Each well was performed in triplicate. All experiments were repeated three times. Cytotoxicity was expressed as mean percentage increase relative to the unexposed control±SD. Control values were set at 0% cytotoxicity or 100% cell viability. Cytotoxicity data (where appropriate) was fitted to a sigmoidal curve and a three parameters logistic model used to calculate the IC50, which is the concentration of chemotherapeutics causing 50% inhibition in comparison to untreated controls. The mean IC50 is the concentration of agent that reduces cell growth by 50% under the experimental conditions and is the average from at least three independent measurements that were reproducible and statistically significant. The IC50 values were reported at ±99% confidence intervals. This analysis was performed with GraphPad Prism (San Diego, U.S.A).

[2] = test system: DU145 cells; assay: MTT cytotoxicity assay; details: DU145 cells, MTT
Experimental: as §1

[3] = test system: PC3 cells; assay: MTT cytotoxicity assay; details: PC3 cells, MTT
Experimental: as §1

[4] = test system: PC3 cells; assay: Intracellular lactate determination; details: concentration not given
Excerpt: Cytosolic metabolism of glucose to pyruvate occurs before its entry into mitochondria for oxidative phosphorylation. However, if not metabolized through oxidative phosphorylation as found in cancer, pyruvate gets converted by lactate dehydrogenase through glycolysis to lactate. Glycolysis in the absence of oxidative phosphorylation in cancer causes rise in lactate concentration. To test the ability of MITO-DCA to switch glucose metabolism from glycolysis to oxidative phosphorylation in cancer cells, intracellular lactate levels in glycolytic PC3 cells were measured and compared the value with those observed in less glycolytic LNCaP and normal MSC cells (FIG. 5A). To understand the importance of mitochondria targeting ligand and to explore the importance of a Tris platform to increase number of DCA molecule per targeting ligand, the parent drug Na-DCA and TPP-DCA were used as controls. Treatment of PC3 cells with 50 μM of MITO-DCA for 6 h reduced the intracellular lactate levels by 58±5%. […] Pronounced lactate concentration differences were observed between […] glycolytic PC3 and healthy MSC cells (FIG. 5A). […] None of the DCA compounds has any effect on the lactate levels in MSC cells (FIG. 5A).
PC3, LNCaP, and MSC cells were seeded at a density of 1×10^6 cells/mL on each well of a 12 well plate and allowed to grow overnight at 37° C. under 5% CO2. Cells were treated with 150 μM Na-DCA, 150 μM TPP-DCA, and 50 μM MITO-DCA for 6 h at 37° C. After 6 h, the media was removed and the cells were homogenized. The lysate was added to the enzyme and substrate working reagent mixture and incubated for 30 min. Lactate concentration was measured using Bio-Tek Synergy HT microplate reader at 450 nm and comparing to a standard curve.

[5] = test system: MSC cells; assay: MTT cytotoxicity assay on normal cells; details: 72 h
Experimental: as §1

O=C(CCCCC[P+](c1ccccc1)(c1ccccc1)c1ccccc1)NC(CO)(CO)CO.[Br-] [TPP-Tris-(OH)3] was tested, and the “Toxic effects (cytotoxicity profile)” value [1] was “did not show any toxic effects”, the “Toxic effects (cytotoxicity profile)” value [2] was “did not show any toxic effects” and the “Toxic effects (cytotoxicity profile)” value [3] was “did not show any toxic effects”. For the same compound, the “Effect on intracellular lactate levels” value [4] was “did not show any effect” and the “Toxicity in normal MSC cells” value [5] was “did not show any toxic effects”.
